Assay results: article PMC6009956, “Design, synthesis and biological activity of N^4-phenylsubstituted-7H-pyrrolo[2,3-d]pyrimidin-4-amines as dual inhibitors of aurora kinase A and epidermal growth factor receptor kinase” (Journal of Enzyme Inhibition and Medicinal Chemistry, 2017)
Where two headings read alike, the source gives them in different places.

Columns and labels:
EGFR = EGFR (Homo sapiens, UniProt P00533); assay: ADP-Glo kinase assay, EGFR; assay type: biochemical; parameters: purchased BPS Bioscience (assay run externally by the vendor)
Sequence of EGFR (P00533 25-1210): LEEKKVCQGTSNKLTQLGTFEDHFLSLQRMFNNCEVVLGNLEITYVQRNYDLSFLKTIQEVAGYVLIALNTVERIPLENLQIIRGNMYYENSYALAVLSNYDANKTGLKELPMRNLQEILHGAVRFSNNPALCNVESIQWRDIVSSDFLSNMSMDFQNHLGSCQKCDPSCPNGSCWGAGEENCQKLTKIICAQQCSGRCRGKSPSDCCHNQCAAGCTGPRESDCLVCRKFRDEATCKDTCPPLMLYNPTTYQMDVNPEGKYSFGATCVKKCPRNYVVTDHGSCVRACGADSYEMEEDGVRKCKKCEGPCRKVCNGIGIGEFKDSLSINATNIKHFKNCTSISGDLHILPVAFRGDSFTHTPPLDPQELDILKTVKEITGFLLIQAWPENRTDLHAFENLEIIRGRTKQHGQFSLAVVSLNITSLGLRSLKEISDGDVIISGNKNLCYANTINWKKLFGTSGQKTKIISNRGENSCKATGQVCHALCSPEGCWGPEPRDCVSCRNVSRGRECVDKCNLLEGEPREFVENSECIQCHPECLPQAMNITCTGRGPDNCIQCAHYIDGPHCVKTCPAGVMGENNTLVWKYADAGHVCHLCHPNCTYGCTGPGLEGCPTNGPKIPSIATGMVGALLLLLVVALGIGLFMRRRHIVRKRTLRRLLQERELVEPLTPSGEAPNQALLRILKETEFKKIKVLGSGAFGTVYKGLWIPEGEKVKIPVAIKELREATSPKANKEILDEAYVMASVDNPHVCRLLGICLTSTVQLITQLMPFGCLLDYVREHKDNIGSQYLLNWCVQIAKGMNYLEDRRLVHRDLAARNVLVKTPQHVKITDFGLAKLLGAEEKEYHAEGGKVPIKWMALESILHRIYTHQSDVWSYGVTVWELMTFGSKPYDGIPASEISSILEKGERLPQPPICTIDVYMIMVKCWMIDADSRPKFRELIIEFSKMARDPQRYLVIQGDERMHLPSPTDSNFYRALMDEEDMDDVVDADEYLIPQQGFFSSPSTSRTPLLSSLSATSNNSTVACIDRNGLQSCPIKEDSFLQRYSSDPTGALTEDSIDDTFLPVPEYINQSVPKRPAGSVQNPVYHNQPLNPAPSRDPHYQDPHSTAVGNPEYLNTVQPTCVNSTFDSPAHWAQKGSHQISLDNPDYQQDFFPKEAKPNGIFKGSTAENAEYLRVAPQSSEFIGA

aurora A kinase (AURKA) = biological target: T1, aurora A kinase (AURKA) (Homo sapiens, UniProt O14965); assay: ADP-Glo kinase assay, Aurora A; assay type: biochemical
T1 construct: purchased BPS Bioscience (assay run externally by the vendor)
T1 sequence (O14965 1-403): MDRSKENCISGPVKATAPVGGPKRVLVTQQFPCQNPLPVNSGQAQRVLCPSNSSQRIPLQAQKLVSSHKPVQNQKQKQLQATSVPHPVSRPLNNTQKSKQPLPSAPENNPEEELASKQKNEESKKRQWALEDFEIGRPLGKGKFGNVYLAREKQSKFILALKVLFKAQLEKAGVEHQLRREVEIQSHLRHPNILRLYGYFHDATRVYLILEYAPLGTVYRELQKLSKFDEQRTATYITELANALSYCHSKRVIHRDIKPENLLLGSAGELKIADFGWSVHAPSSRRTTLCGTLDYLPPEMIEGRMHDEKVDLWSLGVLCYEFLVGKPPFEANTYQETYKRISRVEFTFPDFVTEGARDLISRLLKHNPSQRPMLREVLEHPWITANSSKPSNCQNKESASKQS

IC50 (EGFR; 10 µM ATP, triplicate, read-out: EGFR IC50 ± SD): 1.23 ± 0.201 µM
IC50 (EGFR; 10 µM ATP/0.2 mg/ml Poly-Glu-Tyr, read-out: EGFR IC50 (dose-response curve, supplement)): 1.2 µM
EGFR % Activity Set1 (EGFR; Log[nM] 0): 97%
EGFR % Activity Set2 (EGFR; Log[nM] 0): 98%
EGFR % Activity Set3 (EGFR; Log[nM] 0): 121%
EGFR % Activity Set1 (EGFR; Log[nM] 1.0): 109%
EGFR % Activity Set2 (EGFR; Log[nM] 1.0): 101%
EGFR % Activity Set3 (EGFR; Log[nM] 1.0): 128%
EGFR % Activity Set1 (EGFR; Log[nM] 1.5): 113%
EGFR % Activity Set2 (EGFR; Log[nM] 1.5): 108%
EGFR % Activity Set3 (EGFR; Log[nM] 1.5): 122%
EGFR % Activity Set1 (EGFR; Log[nM] 2.0): 111%
EGFR % Activity Set2 (EGFR; Log[nM] 2.0): 102%
EGFR % Activity Set3 (EGFR; Log[nM] 2.0): 99%
EGFR % Activity Set1 (EGFR; Log[nM] 2.5): 77%
EGFR % Activity Set2 (EGFR; Log[nM] 2.5): 82%
EGFR % Activity Set3 (EGFR; Log[nM] 2.5): 84%
EGFR % Activity Set1 (EGFR; Log[nM] 3.0): 55%
EGFR % Activity Set2 (EGFR; Log[nM] 3.0): 59%
EGFR % Activity Set3 (EGFR; Log[nM] 3.0): 52%
EGFR % Activity Set1 (EGFR; Log[nM] 3.5): 20%
EGFR % Activity Set2 (EGFR; Log[nM] 3.5): 24%
EGFR % Activity Set3 (EGFR; Log[nM] 3.5): 23%
EGFR % Activity Set1 (EGFR; Log[nM] 4.0): 12%
EGFR % Activity Set2 (EGFR; Log[nM] 4.0): 12%
EGFR % Activity Set3 (EGFR; Log[nM] 4.0): 10%
EGFR % Activity Set1 (EGFR; Log[nM] 4.5): 4%
EGFR % Activity Set2 (EGFR; Log[nM] 4.5): 5%
EGFR % Activity Set3 (EGFR; Log[nM] 4.5): 4%
EGFR % Activity Set1 (EGFR; Log[nM] 5.0): 4%
EGFR % Activity Set2 (EGFR; Log[nM] 5.0): 3%
EGFR % Activity Set3 (EGFR; Log[nM] 5.0): 3%
IC50 (aurora A kinase (AURKA); 10 µM ATP, triplicate, read-out: AURKA IC50 ± SD): 8.56 ± 1.74 µM
IC50 (aurora A kinase (AURKA); 10 µM ATP/0.2 mg/ml Kemptide, read-out: Aurora A IC50 (dose-response curve, supplement)): 8.5 µM
Aurora A % Activity Set1 (aurora A kinase (AURKA); Log[nM] 0): 95%
Aurora A % Activity Set2 (aurora A kinase (AURKA); Log[nM] 0): 97%
Aurora A % Activity Set3 (aurora A kinase (AURKA); Log[nM] 0): 102%
Aurora A % Activity Set1 (aurora A kinase (AURKA); Log[nM] 1.0): 102%
Aurora A % Activity Set2 (aurora A kinase (AURKA); Log[nM] 1.0): 103%
Aurora A % Activity Set3 (aurora A kinase (AURKA); Log[nM] 1.0): 102%
Aurora A % Activity Set1 (aurora A kinase (AURKA); Log[nM] 1.5): 105%
Aurora A % Activity Set2 (aurora A kinase (AURKA); Log[nM] 1.5): 105%
Aurora A % Activity Set3 (aurora A kinase (AURKA); Log[nM] 1.5): 107%
Aurora A % Activity Set1 (aurora A kinase (AURKA); Log[nM] 2.0): 98%
Aurora A % Activity Set2 (aurora A kinase (AURKA); Log[nM] 2.0): 107%
Aurora A % Activity Set3 (aurora A kinase (AURKA); Log[nM] 2.0): 109%
Aurora A % Activity Set1 (aurora A kinase (AURKA); Log[nM] 2.5): 103%
Aurora A % Activity Set2 (aurora A kinase (AURKA); Log[nM] 2.5): 103%
Aurora A % Activity Set3 (aurora A kinase (AURKA); Log[nM] 2.5): 107%
Aurora A % Activity Set1 (aurora A kinase (AURKA); Log[nM] 3.0): 92%
Aurora A % Activity Set2 (aurora A kinase (AURKA); Log[nM] 3.0): 102%
Aurora A % Activity Set3 (aurora A kinase (AURKA); Log[nM] 3.0): 98%
Aurora A % Activity Set1 (aurora A kinase (AURKA); Log[nM] 3.5): 66%
Aurora A % Activity Set2 (aurora A kinase (AURKA); Log[nM] 3.5): 73%
Aurora A % Activity Set3 (aurora A kinase (AURKA); Log[nM] 3.5): 70%
Aurora A % Activity Set1 (aurora A kinase (AURKA); Log[nM] 4.0): 44%
Aurora A % Activity Set2 (aurora A kinase (AURKA); Log[nM] 4.0): 48%
Aurora A % Activity Set3 (aurora A kinase (AURKA); Log[nM] 4.0): 48%
Aurora A % Activity Set1 (aurora A kinase (AURKA); Log[nM] 4.5): 18%
Aurora A % Activity Set2 (aurora A kinase (AURKA); Log[nM] 4.5): 18%
Aurora A % Activity Set3 (aurora A kinase (AURKA); Log[nM] 4.5): 19%
Aurora A % Activity Set1 (aurora A kinase (AURKA); Log[nM] 5.0): 11%
Aurora A % Activity Set2 (aurora A kinase (AURKA); Log[nM] 5.0): 11%
Aurora A % Activity Set3 (aurora A kinase (AURKA); Log[nM] 5.0): 11%
SMILES: Cc1ccccc1Nc1ncnc2[nH]ccc12 [Compound 15, N^4-(2-methylphenyl)-7H-pyrrolo[2,3-d]pyrimidin-4-amine]
